Measured values: paper PMC8713167, “New Insights into the Structure–Activity Relationship and Neuroprotective Profile of Benzodiazepinone Derivatives of Neurounina-1 as Modulators of the Na^+/Ca^2+ Exchanger Isoforms” (Journal of Medicinal Chemistry, 2021)

What was measured:
[1] = target: T1, NCX1 (Canis lupus familiaris, UniProt P23685); experiment: Whole-cell patch-clamp electrophysiology of INCX in BHK-NCX1 cells; assay type: cell-based, dog; settings: CTL100; for Patch-clamp-experiments on BHK-NCX1, forward mode: forward mode (−120 mV); for Patch-clamp-experiments on BHK-NCX1, reverse mode: reverse mode (+60 mV)
T1 construct: expressed in transfected cells; host or cells: BHK (baby hamster kidney) cells, stably transfected

[2] = tested on: rat primary cortical neurons; experiment: Cell viability (MTT) of primary cortical neurons exposed to OGD followed by RX; assay type: cell-based; settings: for Neuroprotection in cortical neurons exposed to OGD + RX (in words): added during OGD and RX, 1 at 10 nM, 14 at 10 μM
Procedure: Once identified as NCX activity modulators, compounds 1, 4, and 14 were tested on cell viability of primary rat cortical neurons exposed to OGD followed by RX, an experimental condition mimicking hypoxic conditions occurring during stroke. These compounds were added during either OGD or RX phases at the corresponding median effective concentration for their NCX stimulating or inhibiting activity.
Rat cortical neurons were prepared and grown as previously reported.[22],[23] During the exposure to hypoxic conditions, primary cortical neurons at 7/10 DIV were incubated with different concentrations of each previously identified compound. Italian Ministry of Health and the local Animal Care Committee of “Federico II” University of Naples (Italy) approved all animal procedures adopted (D. Lgs. March 4th, 2014 from Italian Ministry of Health; DIR 210/63 UE; 12/2018-UT7).
Hypoxic conditions were induced by exposing rat primary cortical neurons to a oxygen- and glucose-free medium in a humidified atmosphere containing 95% nitrogen and 5% CO2, as previously reported.[22],[23] Cell injury was assessed by MTT analysis. Briefly, neurons were incubated with 1 mL of MTT solution (0.5 mg/mL in PBS). After 1 h of incubation at 37 °C, neurons were dissolved in dimethyl sulfoxide and the rate of MTT variation was measured spectrophotometrically at the wavelength of 540 nm.[22],[57]

[3] = target: T2, NCX3 (Rattus norvegicus, UniProt P70549); experiment: High-throughput screening of NCX3 reverse mode, Fluo-4-loaded BHK-NCX3 cells, Na+-free pulse; assay type: cell-based; settings: CTL (100), concentration not given (10 nM and 10 μM screened)
T2 construct: expressed in transfected cells; host or cells: BHK (baby hamster kidney) cells, stably transfected

[4] = tested on: primary cortical neurons; experiment: Cell viability (MTT) of primary cortical neurons exposed to chemical hypoxia followed by RX; assay type: cell-based, rat
Procedure: Considering that this represents a more demanding experimental paradigm, compound 1 may be considered an interesting tool with a neuroprotective profile. In fact, its neuroprotective effect in cortical neurons exposed to hypoxic conditions was similar to that produced by ischemic PC,[30],[31] a short stimulus inducing ischemic tolerance in neurons (Figure 6B). Furthermore, to better investigate the neuroprotective profile of compound 1, it was tested in primary cortical neurons exposed to chemical hypoxia, followed by RX, a detrimental condition undermining the mitochondrial function. […] However, the specific role of each mode of operation in the neuroprotective effect remains obscure and very difficult to define in this experimental paradigm. […] Therefore, the excessive activation of the NCX3 forward mode determining Ca^2+ extrusion may negatively counterbalance the activation of its reverse mode, favoring Ca^2+ entrance.
Rat cortical neurons were prepared and grown as previously reported.[22],[23] […]
Chemical hypoxia was reproduced by exposing primary cortical neurons for 45 min to a glucose-free medium containing oligomycin (5 μg/mL) plus 2-DG (2 mM), followed by RX (3 h). […] Cell injury was assessed by MTT analysis at the end of each experiment.

[5] = target: T1, NCX1; experiment: High-throughput screening of NCX1 reverse mode, Fluo-4-loaded BHK-NCX1 cells, Na+-free pulse; assay type: cell-based, dog; settings: for Effect on NCX1 activity in the reverse mode (screening, in words): BHK-NCX1, 10 nM and 10 μM; for Fluo-experiments on BHK-NCX1: NCX1 reverse mode, Na+-free, CTL (100), concentration not given (10 nM and 10 μM screened)
[6] = target: T1, NCX1; experiment: Single-cell Fura-2AM video-imaging, Na+-free-induced [Ca2+]i increase in BHK-NCX1 cells; assay type: cell-based, dog; settings: for Fura2-experiments on BHK-NCX1 (dose/effect) / Fura2-experiments on BHK-NCX1 (dose/effect), inhibition: Na+-free-induced [Ca2+]i increase, reverse mode
Procedure: Furthermore, NCX activity in the reverse mode of operation was also studied on single cell by Fura-2AM video-imaging in BHK-NCX1 and BHK-NCX3 cells (Figures 3 and 4). […] Furthermore, patch-clamp electrophysiology in the whole-cell configuration was used to measure NCX activity both in the forward and reverse mode of operation.
[Ca^2+]i was measured by single-cell computer-assisted video-imaging using Fura-2 acetoxymethyl ester (Fura-2AM). Neurons were loaded with Fura 2AM (10 μM for 30′ at 37 °C). Experiments were carried out with a MicroMax 512BFT cooled CCD camera (Princeton Instruments, Trenton, NJ, USA), LAMBDA 10-2 filter wheeler (Sutter Instruments, Novato, CA), and Meta-Morph/MetaFluor Imaging System software (Universal Imaging, West Chester, PA). Fura-2 fluorescence intensity was measured every 3 s. From each coverslip, 40–60 individual cells were selected and monitored simultaneously. Assuming that the KD for FURA-2 was 224 nM, the equation of Grynkiewicz was used to for calibration.[58]
The NCX reverse mode was determined by switching the normal Krebs medium to Na^+-deficient NMDG+ medium (Na^+-free), as previously reported.[57]
Compounds were solubilized in dimethyl sulfoxide at concentrations of 1 mM, and stock solutions were kept at −20 °C. Appropriate drug dilutions were prepared daily. Statistical analysis was performed with two-way ANOVA, followed by the Newman–Keuls test. Statistical significance was accepted at the 95% confidence level (p < 0.05). Values are expressed as means ± SEM. To obtain EC50’s of newly synthesized compounds and IC50 of compound 4, all data were fitted to the following binding isotherm: […], where X is the drug concentration and n is the Hill coefficient.

[7] = target: T2, NCX3; experiment: Whole-cell patch-clamp electrophysiology of INCX in BHK-NCX3 cells; assay type: cell-based; settings: compound 4 at 10 μM (Figures 5B and S1)
[8] = target: T2, NCX3; experiment: Single-cell Fura-2AM video-imaging, Na+-free-induced [Ca2+]i increase in BHK-NCX3 cells; assay type: cell-based

T2 sequence (P70549 31-927): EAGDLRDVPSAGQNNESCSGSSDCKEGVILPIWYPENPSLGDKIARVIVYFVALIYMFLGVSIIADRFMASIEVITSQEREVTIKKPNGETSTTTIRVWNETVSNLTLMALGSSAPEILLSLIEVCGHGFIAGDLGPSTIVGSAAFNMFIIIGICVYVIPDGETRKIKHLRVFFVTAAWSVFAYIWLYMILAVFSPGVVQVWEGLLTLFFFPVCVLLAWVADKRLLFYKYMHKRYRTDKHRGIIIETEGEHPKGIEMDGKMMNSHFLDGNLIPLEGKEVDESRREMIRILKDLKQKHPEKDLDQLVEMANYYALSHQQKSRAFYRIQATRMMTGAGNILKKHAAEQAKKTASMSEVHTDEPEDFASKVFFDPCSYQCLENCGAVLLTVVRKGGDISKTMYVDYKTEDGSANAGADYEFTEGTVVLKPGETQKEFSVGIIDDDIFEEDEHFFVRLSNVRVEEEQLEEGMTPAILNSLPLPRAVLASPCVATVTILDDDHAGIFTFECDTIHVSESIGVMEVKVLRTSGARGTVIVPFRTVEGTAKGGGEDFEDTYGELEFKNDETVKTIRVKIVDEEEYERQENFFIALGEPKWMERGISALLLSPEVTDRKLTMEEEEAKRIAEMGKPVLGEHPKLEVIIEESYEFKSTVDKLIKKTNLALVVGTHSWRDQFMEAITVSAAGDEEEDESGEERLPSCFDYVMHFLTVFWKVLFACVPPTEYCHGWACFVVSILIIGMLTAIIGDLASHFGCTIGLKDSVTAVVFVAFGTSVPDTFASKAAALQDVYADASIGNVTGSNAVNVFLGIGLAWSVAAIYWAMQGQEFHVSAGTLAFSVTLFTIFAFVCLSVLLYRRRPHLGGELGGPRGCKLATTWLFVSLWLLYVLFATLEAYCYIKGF

## O=C1CN=C(c2ccccc2Cl)c2cc([N+](=O)[O-])ccc2N1CN1CCCC1 [Compound 1, 5-(2-Chlorophenyl)-7-nitro-1-(pyrrolidin-1-ylmethyl)-1H-benzo[e][1,4]diazepin-2(3H)-one]
[1]
  Patch-clamp-experiments on BHK-NCX1, forward mode: 206±2%
  Patch-clamp-experiments on BHK-NCX1, reverse mode: 305±3%
[2]
  Neuroprotection in cortical neurons exposed to OGD + RX (in words): showed a neuroprotective profile
[2]; compound 10 nM added during OGD and RX, OGDrx alone 57, normoxic control 100
  Neuroprotection: cell viability after OGD + RX: 71±0.8 % of control
[2]; preincubated, then removed during OGD + RX
  Neuroprotection when preincubated and removed during OGD and RX (in words): continued to protect neurons from hypoxic conditions
[3]
  Fluo-experiments on BHK-NCX3: 100
[4]; compound 10 nM during chemical hypoxia (45 min) and RX (3 h), chemical Hyp alone 34, control 100
  Neuroprotection: cell viability after chemical hypoxia + RX: 46±1.5 % of control
[4]; compound 1 at 10 nM
  Neuroprotection in cortical neurons exposed to chemical hypoxia + RX (in words): significantly reduced cell suffering
[5]
  Effect on NCX1 activity in the reverse mode (screening, in words): selective NCX1 activator
  Fluo-experiments on BHK-NCX1: 128±1.3
[6]; 1nM
  Fura2-experiments on BHK-NCX1 (dose/effect): 120±1.3 % of controls
[6]; 10nM
  Fura2-experiments on BHK-NCX1 (dose/effect): 178±2.3 % of controls
[6]; 10µM
  Fura2-experiments on BHK-NCX1 (dose/effect): 190±2.1 % of controls

## O=C1CN=C(c2ccccc2)c2cc([N+](=O)[O-])ccc2N1CCN1CCCC1 [Compound 4, 7-Nitro-5-phenyl-1-[2-(pyrrolidin-1-yl)ethyl]-1H-benzo[e][1,4]diazepin-2(3H)-one]
[1]; compound 4 at 10 μM (Figure 5)
  Patch-clamp-experiments on BHK-NCX1, forward mode: 85±2.1
  Patch-clamp-experiments on BHK-NCX1, reverse mode: 58±1.1
other
  melting point: 70 to 71 °C
[3]
  Fluo-experiments on BHK-NCX3: 100
[7]
  Effect on NCX activity in BHK-NCX3 cells (in words): failed to modulate
[5]
  Effect on NCX1 activity in the reverse mode (screening, in words): selective NCX1 inhibitor
  Fluo-experiments on BHK-NCX1: 80±2
[6]
  IC50: 10 µM
[6]; 1nM
  Fura2-experiments on BHK-NCX1 (dose/effect), inhibition: 98±1.3 % of controls
[6]; 10nM
  Fura2-experiments on BHK-NCX1 (dose/effect), inhibition: 97±0.3 % of controls
[6]; 10µM
  Fura2-experiments on BHK-NCX1 (dose/effect), inhibition: 41±2.1 % of controls
[6]; 30µM
  Fura2-experiments on BHK-NCX1 (dose/effect), inhibition: 9±0.5 % of controls

## CC1CCCCN1C(=O)CN1C(=O)CN=C(c2ccccc2)c2cc([N+](=O)[O-])ccc21 (stereo not shown) [Compound 14, 1-[2-(2-Methylpiperidin-1-yl)-2-oxoethyl]-7-nitro-5-phenyl-1H-benzo[e][1,4]-diazepin-2(3H)-one]
[2]
  Neuroprotection in cortical neurons exposed to OGD + RX (in words): lack of neuroprotection
[8]
  EC50: 2000 nM
[6]
  EC50: 3.5 nM
